Test results taken from patent publication US7790899B2, “Synthesis of N-(4-fluorobenzyl)-N-(1-methylpiperidin-4-yl)-N′-(4-(2-methylpropyloxy)phenylmethyl)carbamide and its tartrate salt and crystalline forms” (ACADIA Pharmaceuticals, Inc., priority 2004, dated 2010).

Legend:
[1] = Approximate solubility of Form A: saturated solutions, gravimetric determination after solvent removal; format: physicochemical
Description: Approximate solubility was measured by preparation of saturated solutions in various solvents and gravimetric determination of dissolved substance after solvent removal.

[2] = Stability test, thermal treatment (sealed ampoules, 100° C., HPLC purity); format: physicochemical; conditions: 1 week
Description: (§1) HPLC: HPLC measurements were carried out with a HP LC1090M, Column Symmetry C18, 3.0·150 mm.
The compounds of Examples 3(b) (polymorph A), 25 (polymorph B), and 36 (polymorph C) were placed in sealed ampoules and exposed for 1 week to 100° C. […] The products where analyzed by HPLC and the purity was detected to indicate chemical stability via decomposition.

[3] = Stability test, exposure to humidity (open containers, 60° C., 75% relative humidity); format: physicochemical; conditions: 1 week and 2 weeks, listed as polymorph A
Description: as §1
The compounds of Examples 3(b) (polymorph A), 25 (polymorph B), and 36 (polymorph C) were placed in open containers and exposed 1 week and 2 weeks at 60° C. and 75% relative humidity. In polymorph A, a water content of 2.8% was detected and the HPLC purity was 80%.

[4] = Water absorption and behaviour on exposure to relative humidity; format: physicochemical
[5] = Stability of the crystal forms (general findings); format: physicochemical; conditions: ambient temperatures
[6] = Solubility statements in the description
[7] = physchem; conditions: aqueous solubility

With `CC(C)COc1ccc(CNC(=O)N(Cc2ccc(F)cc2)C2CCN(C)CC2)cc1.CC(C)COc1ccc(CNC(=O)N(Cc2ccc(F)cc2)C2CCN(C)CC2)cc1.O=C(O)C(O)C(O)C(=O)O` [Form A, N-(4-fluorobenzyl)-N-(1-methylpiperidin-4-yl)-N′-(4-(2-methylpropyloxy)phenylmethyl)carbamide hemi-tartrate] the solubility ([1]; aqueous with cosolvent or surfactant or cyclodextrin, thermodynamic from solid, acetone/water (1:1), read-out: Solubility) was > 200000 µg/mL, the solubility ([1]; ethanol) was >10000 µg/mL and the solubility ([1]; organic solvent or mixture, thermodynamic from solid, 1,4-dioxane, read-out: Solubility) was ~2000 µg/mL. For the same compound, the solubility ([1]; organic solvent or mixture, thermodynamic from solid, 2-propanol, read-out: Solubility) was ~1000 µg/mL, the solubility ([1]; organic solvent or mixture, thermodynamic from solid, 2-propanol/water (9:1), read-out: Solubility) was < 1000 µg/mL and the solubility ([1]; organic solvent or mixture, thermodynamic from solid, acetone, read-out: Solubility) was ~2000 µg/mL. For the same compound, the solubility ([1]; organic solvent or mixture, thermodynamic from solid, acetonitrile, read-out: Solubility) was ~2000 µg/mL, the solubility ([1]; organic solvent or mixture, thermodynamic from solid, dichloromethane, read-out: Solubility) was > 30000 µg/mL and the solubility ([1]; organic solvent or mixture, thermodynamic from solid, dimethylsulfoxide, read-out: Solubility) was > 200000 µg/mL. For the same compound, the solubility ([1]; organic solvent or mixture, thermodynamic from solid, ethyl acetate, read-out: Solubility) was < 1000 µg/mL, the solubility ([1]; organic solvent or mixture, thermodynamic from solid, methanol, read-out: Solubility) was > 100000 µg/mL and the solubility ([1]; organic solvent or mixture, thermodynamic from solid, methyl ethyl ketone, read-out: Solubility) was < 1000 µg/mL. The solubility ([1]; organic solvent or mixture, thermodynamic from solid, t-butyl methyl ether, read-out: Solubility) was < 1000 µg/mL, the solubility ([1]; organic solvent or mixture, thermodynamic from solid, toluene, read-out: Solubility) was < 1000 µg/mL and the solubility ([1]; tetrahydrofuran) was >5000 µg/mL. For the same compound, the solubility ([1]; thermodynamic from solid, water, read-out: Solubility) was > 300000 µg/mL, the “State of the material after thermal treatment” value [2] was “formed a deliquescent compact material” and the “HPLC purity after thermal treatment” value ([2]; listed as polymorph A) was 25.9%. For the same compound, the “HPLC purity after exposure to humidity” value [3] was 80%, the “water content after exposure to humidity” value [3] was 2.8% and the “Water uptake when exposed to humidity” value ([4]; above 75% relative humidity) was “considerable water uptake”. The “Stability under ambient water partial pressures” value ([4]; relative humidities between 20% and 75%) was “sufficient stability”, the “Stability at ambient temperatures” value [5] was “stable” and the “amount that can be dissolved in tetrahydrofuran” value ([6]; tetrahydrofuran, reflux temperature) was “about 200 mg/ml”. The “Solubility in water or aqueous systems (in words)” value ([6]; water) was “well soluble”.
In the case of `CC(C)COc1ccc(CNC(=O)N(Cc2ccc(F)cc2)C2CCN(C)CC2)cc1` [Form E, N-(4-fluorobenzyl)-N-(1-methylpiperidin-4-yl)-N′-(4-(2-methylpropyloxy)phenylmethyl)carbamide hemi-tartrate], the solubility [7] is reported as > 200000 µg/mL.
